This is an account of results in patent US12649980B2, “Three-dimensional surface for protein and small molecule microarrays” (The Johns Hopkins University, priority 2019, dated 2026).

Data set [1] deals with A549 cells. The data set is described as follows: [3H]-2DG uptake assay in A549 cells. The data set is classed as cell-based, human. As to conditions: 10 min incubation with compound, mean ± s.d., n = 3. Here is the method:
To determine which of the 17 rapafucin hits inhibited the transporter activity of GLUT1, an orthogonal glucose uptake assay using 2-deoxy-D-[3H] glucose ([3H]-2DG), a nonhydrolyzable, radioactive glucose analog, was employed. Each hit was separately incubated with A549 cells for 10 min before the amount of [3H]-2DG taken up by the cells was measured using scintillation counting. […] The effect of JW11-D2 on uptake of [3H]-2DG in human red blood cells that exclusively express GLUT1 was then determined. Helgerson and Carruthers, J. Biol. Chem. 1987, 262, 5464-5475. […] To further improve the potency of JW11-D2, a structure-activity relationship (SAR) study was performed by synthesizing 21 new analogs of JW11-D2 using different amino acid building blocks.
(§1) The inhibitory activity of compounds on glucose transport was analyzed by measuring the cell uptake of [3H]-2DG as previously described. Ulanovskaya et al., Chem. Biol. 2011, 18, 222-230. Briefly, cells were washed twice and incubated in low-glucose medium for 10 min. Cells were added drugs and incubated for another 10 min before adding [3H]-2DG. After 10 min incubation with [3H]-2DG, cells were washed twice and lysed with 0.2 N NaOH plus 0.2% SDS. The cell lysate was transferred to a new tube containing 1 mL of optiphase supermix. Glucose uptake was quantified with a scintillation counter.

The test system of data set [2] is HCC1954. The data set is described as follows: [3H]-2DG uptake assay in HCC1954 cells. The data set is classed as cell-based, human. Here is the method:
Hay, Nat. Rev. […] To determine whether RgA could inhibit glucose uptake in cancer cell lines in addition to A549, the impact of RgA on [3H]-2DG uptake in six other cancer cell lines, including HCC1954, MCF-7, PANC10.05, Jurkat T, HeLa, and RKO was measured (FIG. 3A, Table 3).
as §1

Data set [3] concerns DLD1 GLUT1 KO. Kind of data set: [3H]-2DG uptake in DLD1 GLUT1 knockout cells. The data set is classed as cell-based. Here is the method:
as §1

The target in data set [4] is FKBP12 (Homo sapiens, UniProt P62942). Kind of data set: peptidyl prolyl cis-trans isomerase activity inhibition, FKBP12. The class given is biochemical. As to conditions: inhibition of prolyl isomerase activity.
Chain of FKBP12 (P62942 whole entry, species assumed, canonical isoform): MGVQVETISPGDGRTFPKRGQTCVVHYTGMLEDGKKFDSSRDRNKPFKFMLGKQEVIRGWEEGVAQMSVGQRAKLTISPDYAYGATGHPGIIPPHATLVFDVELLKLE
The test system of data set [5] is MCF-7 tumors. The data set is described as follows: MCF-7 breast cancer xenograft in NSG mice. The class given is in vivo. Here is the method: Given that RgA inhibited multiple isoforms of GLUTs, including GLUT1, 3, and 4, it raised the question of whether animals could tolerate RgA. As breast cancer cell lines are more sensitive to RgA than other cell lines (FIG. 6A and Table 3), the anti-breast cancer activity of RgA in vivo was assessed. Two breast cancer cell lines were selected for the xenograft experiment-MCF-7, an ER+, HER2− line, and HCC1954, an ER−, HER2+ breast line. NSG mice bearing MCF-7 tumors were given daily vehicle or RgA at a dose of 2 mg/kg for […].
All animal studies were conducted in compliance with all relevant ethical regulations set forth by the Johns Hopkins University Animal Care and Use Committee (ACUC). Female mice aged 4-6 weeks and weighing 18-22 g were maintained in a pathogen-free facility at Johns Hopkins Medical Institutions and cared for according to National Institutes of Health guidelines and under a protocol approved by the Johns Hopkins University Animal Care Committee. For the xenograft experiment of MCF-7, 17β-estradiol pellets (0.72 mg per pellet, 60-day release, Innovative Research of America, FL) were implanted at 5 days prior to tumor cell injection. Approximately 5 million MCF-7 cells were implanted subcutaneously into NSG mice (n=6 per group, NSG, The Jackson Laboratory). For the xenograft experiment of HCC1954, approximately 2 million cells were implanted subcutaneously into athymic nude mice (n=6 per group, NCr-nu/nu, Charles River). After tumors became palpable, the mice bearing MCF-7 and HCC1954 tumors were treated with either vehicle (saline with 5% PEG400, 5% Tween80 and 5% DMSO) or RgA via intraperitoneal injection every day. The tumor volume was measured periodically using a Vernier caliper and calculated according to the modified ellipsoid formula: tumor volume (mm^3)=(short axis)^2×(long axis)×π/6. After 30 days of treatment, the mice were killed, and the tumor tissues were extracted and stored in 10% formalin solution for future use.

For orientation: IC50 means the concentration that inhibits the measured activity by half. For orientation: EC50 means the concentration needed to bring the measured effect to its halfway point. A higher EC50 goes with a less potent agent. One may read the Ki as the equilibrium dissociation constant of an inhibitor or competing ligand from its target. High values mean weaker binding, low ones tighter binding.

As to `CCC(C)C1C(=O)NCC(=O)N(C)CCC=CC(=O)OCC(C)(C)C(=O)C(=O)N2CCCCC2C(=O)OC(CCc2ccc(OC)c(OC)c2)c2cccc(c2)NC(=O)CCC(=O)N(C)C(CC(C)C)C(=O)NC(Cc2ccccc2)C(=O)N1C` (centres unmarked) [JW11-D2, Rapaglutin A], the half-maximal inhibitory concentration (IC50) in data set [1] amounted to 11.6 nM; in data set [2], 8.3 nM. The compound also gave an EC50 in data set [3] (DLD1 GLUT1 knockout) of 27.1 ± 3.6 nM. Moreover, in data set [3] (DLD-1 GLUT1 knock out versus wild type), the “inhibitory activity in GLUT1 knock out cells” value is reported as “retained its inhibitory activity”. Also, in data set [4], the Ki is 1.5 nM. The tumor weight in data set [5] (MCF-7 in NSG mice, 2 mg/kg daily, vehicle 454 mg) was 285 mg. Further, the “tumor volume index on day 38” value in data set [5] (MCF-7 in NSG mice, 2 mg/kg intraperitoneally daily, vehicle 2.84) is 1.70. Also, the “weight loss and signs of adverse effects” value in data set [5] (MCF-7 xenograft mice, 2 mg/kg daily) is “no significant weight loss or any signs of adverse effects”.
